Values after ≈ are worked out from the molar mass of the structure shown. Like-named read-outs stand apart in the source and are kept apart here.
Key:
Mtb H37Rv [1] = assay: TB MIC - SRI, resazurin-based microplate assay; type: cell-based, Mycobacterium tuberculosis; settings: Mycobacterium tuberculosis, H37RV
Vero cells = settings: African green monkey, 72 h
Mtb H37Rv [2] = assay: TB MIC - ITR (UIC), Institute for Tuberculosis Research; type: cell-based, Mycobacterium tuberculosis; settings: Table P3
[3] = Tables P1-P3, read-out: TB MIC - SRI
[4] = Table P4, read-out: Activity against H37Rv

Row | Compound | MIC (Mtb H37Rv [1]; [3]) | VERO Tox-SRI (Vero cells) | other results
1 | Nc1n[n+]([O-])c2cc3c(cc2[n+]1[O-])CCC3 [SRI-012398] | 2.5 µg/mL (≈ 11.5 µM) |  | 
2 | CCNc1n[n+]([O-])c2cc(C)c(C)cc2[n+]1[O-] [SRI-012399] | 2.5 µg/mL (≈ 10.7 µM) |  | 
3 | CC(C)(C)C1CCC(Nc2n[n+]([O-])c3cc(F)ccc3[n+]2[O-])CC1 (centres unmarked) [SRI-012401] | 0.312 µg/mL (≈ 0.933 µM) |  | 
4 | [O-][n+]1nc(NC2CCC2)[n+]([O-])c2cc3c(cc21)CCC3 [SRI-012403] | 0.625 µg/mL (≈ 2.3 µM) | 33.6 | 
5 | Cc1cc2c(cc1C)[n+]([O-])c(NC1CCC1)n[n+]2[O-] [SRI-012459] | 0.625 µg/mL (≈ 2.4 µM) | 21.8 | 
6 | Cc1cccc2c1[n+]([O-])c(NC1CCC1)n[n+]2[O-] [SRI-012460] | 0.312 µg/mL (≈ 1.27 µM) | 21.8 | 
7 | COc1ccc2c(c1)[n+]([O-])nc(N[C@@H]1C[C@H]3CC[C@@H]1C3)[n+]2[O-] [SRI-012462] | 0.625 µg/mL (≈ 2.07 µM) |  | 
8 | COc1ccc2c(c1)[n+]([O-])nc(NC1CCC1)[n+]2[O-] [SRI-012463] | 0.625 µg/mL (≈ 2.38 µM) | 9.85 | 
9 | CCNc1n[n+]([O-])c2cc(Br)ccc2[n+]1[O-] [SRI-012464] | 0.625 µg/mL (≈ 2.19 µM) |  | 
10 | [O-][n+]1nc(NC2CCC2)[n+]([O-])c2ccc(Br)cc21 [SRI-012465] | 0.156 µg/mL (≈ 0.501 µM) |  | 
11 | [O-][n+]1nc(NC2CCCC2)[n+]([O-])c2ccc(Br)cc21 [SRI-012466] | 0.156 µg/mL (≈ 0.48 µM) |  | 
12 | CCNc1n[n+]([O-])c2cc(C)c(OC)cc2[n+]1[O-] [SRI-012468] |  | 100 | 
13 | COc1cc2c(cc1C)[n+]([O-])nc(NC1CCC1)[n+]2[O-] [SRI-012469] |  | 50 | 
14 | COc1cc2c(cc1C)[n+]([O-])nc(N[C@@H]1C[C@H]3CC[C@@H]1C3)[n+]2[O-] [SRI-012470] |  | 50 | 
15 | [O-][n+]1nc(N2CCCC2)[n+]([O-])c2ccccc21 [SRI-012495] | 0.312 µg/mL (≈ 1.34 µM) |  | TB MIC - UIC (Mtb H37Rv [2]): 17.4 µg/mL
16 | [O-][n+]1nc(N2CCCC2)[n+]([O-])c2cc3c(cc21)CCC3 [SRI-012530] |  |  | MIC (Mtb H37Rv [1]; read-out: Activity against H37Rv, Table P4): 0.62 µg/mL (≈ 2.28 µM); MIC (Mtb H37Rv [1]; read-out: TB MIC - SRI, Tables P1-P3): 0.625 µg/mL (≈ 2.3 µM)
17 | [O-][n+]1nc(N2CCCCC2)[n+]([O-])c2cc3c(cc21)CCC3 [SRI-012562] | 0.625 µg/mL (≈ 2.18 µM) |  | 
18 | CN(C)c1n[n+]([O-])c2cc3c(cc2[n+]1[O-])CCC3 [SRI-012563] | 0.625 µg/mL (≈ 2.54 µM) |  | 
19 | CN(Cc1ccccc1)c1n[n+]([O-])c2cc3c(cc2[n+]1[O-])CCC3 [SRI-012564] | 0.312 µg/mL (≈ 0.968 µM) |  | 
20 | CN(CCc1ccccc1)c1n[n+]([O-])c2cc3c(cc2[n+]1[O-])CCC3 [SRI-012565] | 0.312 µg/mL (≈ 0.927 µM) |  | 
21 | O=S1(=O)CCN(c2n[n+]([O-])c3cc4c(cc3[n+]2[O-])CCC4)CC1 [SRI-012566] | 5 µg/mL (≈ 14.9 µM) |  | MIC (Mtb H37Rv [1]; [4]): 5 µg/mL (≈ 14.9 µM)
22 | CC1CCCCN1c1n[n+]([O-])c2cc3c(cc2[n+]1[O-])CCC3 (centres unmarked) [SRI-012567] | 1.25 µg/mL (≈ 4.16 µM) |  | MIC (Mtb H37Rv [1]; [4]): 1.25 µg/mL (≈ 4.16 µM)
23 | CS(=O)(=O)N1CCN(c2n[n+]([O-])c3cc4c(cc3[n+]2[O-])CCC4)CC1 [SRI-012568] | 5 µg/mL (≈ 13.7 µM) |  | MIC (Mtb H37Rv [1]; [4]): 5 µg/mL (≈ 13.7 µM)
